Test results taken from patent US10167299B2, “1-(3-aminopropyl) substituted cyclic amine compounds, preparation method therefor, and pharmaceutical compositions and uses thereof” (SHANGHAI INSTITUTE OF MATERIA MEDICA, CHINESE ACADEMY OF …, priority 2013, dated 2019).
≈ marks a conversion by molar mass, not a printed value. Where two headings read alike, the source gives them in different places.

What was measured:
[1] = Cytotoxicity (CC50) in TZM-bl cells; type: cell-based; conditions: human
CCR5 = CCR5 (Homo sapiens (Human), UniProt P51681); assay: Calcium flux inhibition experiment; type: cell-based; conditions: for IC50: HEK293/CCR5-Gα16 cell line, calcium flux, read-out: CCR5 IC50; for calcium influx inhibition effect in words, versus positive control compounds: conclusion from Table 1
HIV-1SF162 virus strain = assay: Inhibition activity on TZM-bl cells infected with HIV-1SF162; conditions: for EC50: Human immunodeficiency virus 1, TZM-bl; for therapeutic index (TI): TZM-bl cells infected with HIV-1SF162
[2] = TZM-bl cells (Table 3), read-out: CC50

CCR5, sequence (P51681 whole entry): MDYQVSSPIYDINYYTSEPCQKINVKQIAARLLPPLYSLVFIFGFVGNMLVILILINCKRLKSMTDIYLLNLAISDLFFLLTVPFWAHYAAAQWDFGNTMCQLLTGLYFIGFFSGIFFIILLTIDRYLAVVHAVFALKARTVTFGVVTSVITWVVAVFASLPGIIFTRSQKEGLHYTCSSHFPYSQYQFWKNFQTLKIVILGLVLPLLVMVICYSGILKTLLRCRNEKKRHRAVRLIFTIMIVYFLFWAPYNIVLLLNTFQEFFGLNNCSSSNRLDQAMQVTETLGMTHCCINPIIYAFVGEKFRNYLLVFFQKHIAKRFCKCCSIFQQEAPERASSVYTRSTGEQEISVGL

Row | Compound | CC50 [1] [µg/mL] | IC50 (CCR5) [nM] | calcium influx inhibition effect in words, versus positive control compounds (CCR5) | EC50 (HIV-1SF162 virus strain) [µg/mL] | therapeutic index (TI) (HIV-1SF162 virus strain) | CC50 [1, 2] [µg/mL]
1 | Cc1nnc(C(C)C)n1C1CC2CCC(C1)N2CC[C@H](NC(=O)C1CCCCC1)c1ccc(F)s1 (stereo partly drawn) [Compound 38, N-[(1S)-3-[exo-3-(3-isopropyl-5-methyl-4H-1,2,4-triazol-4-yl)-8-azabicyclo[3.2.1]octane-8-yl]-1-(5-fluorothiophen-2-yl)propyl]cyclohexane-1-carboxamide] | > 200 | 9.33 | comparable to the positive control compounds | 2.61 (≈ 5.2 µM) | >73.64 | –
2 | Cc1nnc(C(C)C)n1C1CC2CCC(C1)N2CC[C@H](NC(=O)C1CCCC1)c1ccc(F)s1 (stereo partly drawn) [Compound 39, N-[(1S)-3-[exo-3-(3-isopropyl-5-methyl-4H-1,2,4-triazol-4-yl)-8-azabicyclo[3.2.1]octane-8-yl]-1-(5-fluorothiophen-2-yl)propyl]cyclopentane-1-carboxamide] | – | 1.41 | better than the positive control compounds | 1.02 (≈ 2.09 µM) | >196.08 | > 200
3 | CC(=O)N[C@@H](CCN1C2CCC1CC(n1c(C)nc3c1CCN(C(C)=O)C3)C2)c1nccs1 (stereo partly drawn) [Compound 118, N-{(1S)-3-[(3-endo)-3-(5-acetyl-2-methyl-4,5,6,7-tetrahydro-1H-imidazo[4,5-c]pyridin-1-yl)-8-azabicyclo[3.2.1]octane-8-yl]-1-(thiazol-2-yl)-propyl}acetamide] | – | 16.9 | – | 0.669 (≈ 1.42 µM) | >168.03 | > 200
4 | COC(=O)N1CCc2c(nc(C)n2C2CC3CCC(C2)N3CC[C@H](NC(C)=O)c2nccs2)C1 (stereo partly drawn) [Compound 119, Methyl 1-{(endo)-8-[(S)-3-acetamido-3-(thiazol-2-yl)-propyl]-8-azabicyclo[3.2.1]octan-3-yl}-2-methyl-1,4,6,7-tetrahydro-5H-imidazo[4,5-c]pyridine-5-carboxylate] | > 200 | 4.77 | better than the positive control compounds | 0.738 (≈ 1.52 µM) | >270.84 | –
5 | CCC(=O)N1CCc2c(nc(C)n2C2CC3CCC(C2)N3CC[C@H](NC(C)=O)c2nccs2)C1 (stereo partly drawn) [Compound 120, N-{(1S)-3-[(3-endo)-3-(5-propionyl-2-methyl-4,5,6,7-tetrahydro-1H-imidazo[4,5-c]pyridin-1-yl)-8-azabicyclo[3.2.1]octane-8-yl]-1-(thiazol-2-yl)-propyl}acetamide] | > 200 | 27.7 | – | 0.831 (≈ 1.71 µM) | >240.76 | –
6 | CC(=O)N[C@@H](CCN1C2CCC1CC(n1c(C)nc3c1CCN(C(=O)C(C)C)C3)C2)c1nccs1 (stereo partly drawn) [Compound 121, N-{(1S)-3-[(3-endo)-3-(5-isobutyryl-2-methyl-4,5,6,7-tetrahydro-1H-imidazo[4,5-c]pyridin-1-yl)-8-azabicyclo[3.2.1]octane-8-yl]-1-(thiazol-2-yl)-propyl}acetamide] | > 200 | 32.3 | – | 0.328 (≈ 0.658 µM) | >386.37 | –
7 | CC(=O)N[C@@H](CCN1C2CCC1CC(n1c(C)nc3c1CCN(C(=O)C1CC1)C3)C2)c1nccs1 (stereo partly drawn) [Compound 122, N-{(1S)-3-[(3-endo)-3-(5-cyclopropionyl-2-methyl-4,5,6,7-tetrahydro-1H-imidazo[4,5-c]pyridin-1-yl)-8-azabicyclo[3.2.1]octane-8-yl]-1-(thiazol-2-yl)-propyl}acetamide] | > 200 | 24.5 | – | 0.69 (≈ 1.39 µM) | >290.06 | –
8 | CC(=O)N[C@@H](CCN1C2CCC1CC(n1c(C)nc3c1CCN(C(C)=O)C3)C2)c1ccc(Cl)s1 (stereo partly drawn) [Compound 125, N-{(1S)-3-[(3-endo)-3-(5-acetyl-2-methyl-4,5,6,7-tetrahydro-1H-imidazo[4,5-c]pyridin-1-yl)-8-azabicyclo[3.2.1]octane-8-yl]-1-(5-chlorothiophen-2-yl)-propyl}acetamide] | > 200 | 12.2 | – | 0.286 (≈ 0.567 µM) | >699.27 | –
9 | COC(=O)N1CCc2c(nc(C)n2C2CC3CCC(C2)N3CC[C@H](NC(C)=O)c2ccc(Cl)s2)C1 (stereo partly drawn) [Compound 126, Methyl 1-{(endo)-8-[(S)-3-acetamido-3-(5-chlorothiophen-2-yl)-propyl]-8-azabicyclo[3.2.1]octan-3-yl}-2-methyl-1,4,6,7-tetrahydro-5H-imidazo[4,5-c]pyridine-5-carboxylate] | > 200 | 22 | – | 0.091 (≈ 0.175 µM) | >2207.68 | –
10 | CCC(=O)N1CCc2c(nc(C)n2C2CC3CCC(C2)N3CC[C@H](NC(C)=O)c2ccc(Cl)s2)C1 (stereo partly drawn) [Compound 127, N-{(1S)-3-[(3-endo)-3-(5-propionyl-2-methyl-4,5,6,7-tetrahydro-1H-imidazo[4,5-c]pyridin-1-yl)-8-azabicyclo[3.2.1]octane-8-yl]-1-(5-chlorothiophen-2-yl)-propyl}acetamide] | – | 22.9 | – | 0.145 (≈ 0.28 µM) | >1379.94 | > 200
11 | CCCC(=O)N1CCc2c(nc(C)n2C2CC3CCC(C2)N3CC[C@H](NC(C)=O)c2ccc(Cl)s2)C1 (stereo partly drawn) [Compound 128, N-{(1S)-3-[(3-endo)-3-(5-n-butyryl-2-methyl-4,5,6,7-tetrahydro-1H-imidazo[4,5-c]pyridin-1-yl)-8-azabicyclo[3.2.1]octane-8-yl]-1-(5-chlorothiophen-2-yl)-propyl}acetamide] | > 200 | 17.5 | – | 0.174 (≈ 0.327 µM) | >1150.82 | –
12 | CC(=O)N[C@@H](CCN1C2CCC1CC(n1c(C)nc3c1CCN(C(=O)C(C)C)C3)C2)c1ccc(Cl)s1 (stereo partly drawn) [Compound 129, N-{(1S)-3-[(3-endo)-3-(5-isobutyryl-2-methyl-4,5,6,7-tetrahydro-1H-imidazo[4,5-c]pyridin-1-yl)-8-azabicyclo[3.2.1]octane-8-yl]-1-(5-chlorothiophen-2-yl)-propyl}acetamide] | > 200 | 14.2 | – | 0.072 (≈ 0.135 µM) | >1526.72 | –
13 | CC(=O)N[C@@H](CCN1C2CCC1CC(n1c(C)nc3c1CCN(C(=O)C1CC1)C3)C2)c1ccc(Cl)s1 (stereo partly drawn) [Compound 130, N-{(1S)-3-[(3-endo)-3-(5-cyclopropionyl-2-methyl-4,5,6,7-tetrahydro-1H-imidazo[4,5-c]pyridin-1-yl)-8-azabicyclo[3.2.1]octane-8-yl]-1-(5-chlorothiophen-2-yl)-propyl}acetamide] | > 200 | 18.5 | – | 0.053 (≈ 0.1 µM) | >2562.98 | –
14 | CC(=O)N[C@@H](CCN1C2CCC1CC(n1c(C)nc3c1CCN(C(C)=O)C3)C2)c1ccc(F)s1 (stereo partly drawn) [Compound 131, N-{(1S)-3-[(3-endo)-3-(5-acetyl-2-methyl-4,5,6,7-tetrahydro-1H-imidazo[4,5-c]pyridin-1-yl)-8-azabicyclo[3.2.1]octane-8-yl]-1-(5-fluorothiophen-2-yl)-propyl}acetamide] | – | 6.57 | better than the positive control compounds | 0.098 (≈ 0.201 µM) | >1302.27 | > 200
15 | CC(=O)N[C@@H](CCN1C2CCC1CC(n1c(C)nc3c1CCN(C(=O)C1CC1)C3)C2)c1ccc(F)s1 (stereo partly drawn) [Compound 132, N-{(1S)-3-[(3-endo)-3-(5-cyclopropionyl-2-methyl-4,5,6,7-tetrahydro-1H-imidazo[4,5-c]pyridin-1-yl)-8-azabicyclo[3.2.1]octane-8-yl]-1-(5-fluorothiophen-2-yl)-propyl}acetamide] | – | 22.2 | – | 0.097 (≈ 0.189 µM) | >2063.25 | > 200
16 | COC(=O)N1CCc2c(nc(C)n2C2CC3CCC(C2)N3CC[C@H](NC(C)=O)c2ccc(F)s2)C1 (stereo partly drawn) [Compound 133, Methyl 1-{(endo)-8-[(S)-3-acetamido-3-(5-fluorothiophen-2-yl)-propyl]-8-azabicyclo[3.2.1]octan-3-yl}-2-methyl-1,4,6,7-tetrahydro-5H-imidazo[4,5-c]pyridine-5-carboxylate] | > 200 | 1.78 | better than the positive control compounds | 0.152 (≈ 0.302 µM) | >1313.56 | –
17 | CCC(=O)N1CCc2c(nc(C)n2C2CC3CCC(C2)N3CC[C@H](NC(C)=O)c2ccc(F)s2)C1 (stereo partly drawn) [Compound 134, N-{(1S)-3-[(3-endo)-3-(5-propionyl-2-methyl-4,5,6,7-tetrahydro-1H-imidazo[4,5-c]pyridin-1-yl)-8-azabicyclo[3.2.1]octane-8-yl]-1-(5-fluorothiophen-2-yl)-propyl}acetamide] | > 200 | 22.1 | – | 0.113 (≈ 0.225 µM) | >1772.41 | –
18 | CC(=O)N[C@@H](CCN1C2CCC1CC(n1c(C)nc3c1CCN(C(=O)C(C)C)C3)C2)c1ccc(F)s1 (stereo partly drawn) [Compound 135, N-{(1S)-3-[(3-endo)-3-(5-isobutyryl-2-methyl-4,5,6,7-tetrahydro-1H-imidazo[4,5-c]pyridin-1-yl)-8-azabicyclo[3.2.1]octane-8-yl]-1-(5-fluorothiophen-2-yl)-propyl}acetamide] | > 200 | 8.28 | comparable to the positive control compounds | 0.155 (≈ 0.301 µM) | >1222.11 | –
19 | CCCC(=O)N1CCc2c(nc(C)n2C2CC3CCC(C2)N3CC[C@H](NC(C)=O)c2ccc(F)s2)C1 (stereo partly drawn) [Compound 136, N-{(1S)-3-[(3-endo)-3-(5-n-butyryl-2-methyl-4,5,6,7-tetrahydro-1H-imidazo[4,5-c]pyridin-1-yl)-8-azabicyclo[3.2.1]octane-8-yl]-1-(5-fluorothiophen-2-yl)-propyl}acetamide] | – | 22.1 | – | 0.011 (≈ 0.0213 µM) | >4834.51 | > 200
